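A five-concentration, 48-hour dose response in 96-well plates underlies each endpoint, interpolated linearly between surrounding concentrations. At the GI50, growth is halved.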 The source made the active and inactive calls. Rule as the data show it: active = GI50 up to about 1.1 µM and inactive = higher.
Tests used:
Experiment in all cases: DTP human tumour cell line panel, 48 h
[1] = system: A498
[2] = system: MOLT-4
[3] = system: SK-MEL-2
[4] = system: SF-268
[5] = system: IGROV-1
[6] = system: ACHN
[7] = system: HL-60
[8] = system: UACC-257
[9] = system: SF-295
[10] = system: SK-OV-3
[11] = system: NCI-H23
[12] = system: CAKI-1
[13] = system: HT-29
[14] = system: OVCAR-5
[15] = system: RPMI-8226
[16] = system: UACC-62
[17] = system: SK-MEL-5
[18] = system: U-251

SMILES | GI50 [1] | GI50 [2] | GI50 [3] | GI50 [4] | GI50 [5] | GI50 [6] | GI50 [7] | GI50 [8] | GI50 [9] | GI50 [10] | GI50 [11] | GI50 [12] | GI50 [13] | GI50 [14] | GI50 [15] | GI50 [16] | GI50 [17] | GI50 [18]
C/C(CC(=O)Nc1ccc(C)c(C)c1)=N\N(c1ccccc1)c1ccccc1 | > 100 µM (inactive) | 62.5 µM (inactive) | 55.6 µM (inactive) | 58.7 µM (inactive) | 64.4 µM (inactive) | 58.9 µM (inactive) | 88.1 µM (inactive) | > 100 µM (inactive) | > 100 µM (inactive) | > 100 µM (inactive) | > 100 µM (inactive) | 80.7 µM (inactive) | > 100 µM (inactive) | > 100 µM (inactive) | 47.1 µM (inactive) | 21.6 µM (inactive) | 62.7 µM (inactive) | 15.2 µM (inactive)
CC(=O)OC1COC(n2c(=S)n(-c3ccccc3)c(=O)c3cc(Br)ccc32)C(OC(C)=O)C1OC(C)=O (centres undefined) | 49.4 µM (inactive) | > 100 µM (inactive) | 45.1 µM (inactive) | 29.1 µM (inactive) | 45.1 µM (inactive) | > 100 µM (inactive) | > 100 µM (inactive) | 55.2 µM (inactive) | 27.5 µM (inactive) | 32.8 µM (inactive) | 43.7 µM (inactive) | 42 µM (inactive) | 72.1 µM (inactive) | > 100 µM (inactive) | 33.9 µM (inactive) | 37.3 µM (inactive) | 54.8 µM (inactive) | 14.6 µM (inactive)
CCOC(=O)NN1C(=O)C(=P(c2ccccc2)(c2ccccc2)c2ccccc2)C(C(=O)OC)=C1C | > 100 µM (inactive) | > 100 µM (inactive) | > 100 µM (inactive) | > 100 µM (inactive) | > 100 µM (inactive) | > 100 µM (inactive) | > 100 µM (inactive) | > 100 µM (inactive) | > 100 µM (inactive) | > 100 µM (inactive) | > 100 µM (inactive) | > 100 µM (inactive) | > 100 µM (inactive) | > 100 µM (inactive) | > 100 µM (inactive) | > 100 µM (inactive) | > 100 µM (inactive) | > 100 µM (inactive)
CC1NOC(=O)C1/N=N/c1ccccc1Cl (centres undefined) | 17 µM (inactive) | > 10 µM (inactive) | 25.4 µM (inactive) | 35.1 µM (inactive) | 73.1 µM (inactive) | 27 µM (inactive) | 20 µM (inactive) | 17.8 µM (inactive) | 74.1 µM (inactive) | 28.3 µM (inactive) | 29.9 µM (inactive) | 25.5 µM (inactive) | – | 34.8 µM (inactive) | 20.4 µM (inactive) | 31.1 µM (inactive) | 13.8 µM (inactive) | 42.4 µM (inactive)
O=c1c2cc(Br)ccc2nc(CNc2ccccc2)n1-c1ccccc1 | 34.6 µM (inactive) | 9.59 µM (inactive) | 20.7 µM (inactive) | 17.4 µM (inactive) | 15.8 µM (inactive) | 18.7 µM (inactive) | 16.8 µM (inactive) | 23.2 µM (inactive) | 24.2 µM (inactive) | 36.2 µM (inactive) | 13.6 µM (inactive) | 3.02 µM (inactive) | 16.7 µM (inactive) | 52.8 µM (inactive) | 8.97 µM (inactive) | 8.51 µM (inactive) | 15.6 µM (inactive) | 15.2 µM (inactive)
CCCCN(CCCC)C(=O)C(=O)CC(=O)/C=C/c1ccccc1 | > 100 µM (inactive) | > 100 µM (inactive) | > 100 µM (inactive) | > 100 µM (inactive) | > 100 µM (inactive) | > 100 µM (inactive) | > 100 µM (inactive) | > 100 µM (inactive) | > 100 µM (inactive) | > 100 µM (inactive) | > 100 µM (inactive) | > 100 µM (inactive) | > 100 µM (inactive) | > 100 µM (inactive) | > 100 µM (inactive) | > 100 µM (inactive) | > 100 µM (inactive) | > 100 µM (inactive)
NCc1cccc(O)c1O | > 100 µM (inactive) | > 100 µM (inactive) | > 100 µM (inactive) | > 100 µM (inactive) | – | > 100 µM (inactive) | 38.7 µM (inactive) | > 100 µM (inactive) | > 100 µM (inactive) | > 100 µM (inactive) | – | > 100 µM (inactive) | > 100 µM (inactive) | > 100 µM (inactive) | > 100 µM (inactive) | > 100 µM (inactive) | > 100 µM (inactive) | > 100 µM (inactive)
CCCCCCCCCCCc1noc2c1C(=O)C(O)CC2 (centres undefined) | 34.9 µM (inactive) | 22.3 µM (inactive) | 17.5 µM (inactive) | 38.5 µM (inactive) | 50 µM (inactive) | 32.8 µM (inactive) | 23.9 µM (inactive) | 20.5 µM (inactive) | 21.2 µM (inactive) | 25.7 µM (inactive) | 16.3 µM (inactive) | 32.8 µM (inactive) | 18.8 µM (inactive) | 18.2 µM (inactive) | 25 µM (inactive) | 16.4 µM (inactive) | 14.6 µM (inactive) | 14.6 µM (inactive)
COc1ccc(C2=Nc3ccccc3SC(C)C2)cc1OC (centres undefined) | 23.8 µM (inactive) | 14.5 µM (inactive) | 30.3 µM (inactive) | 22 µM (inactive) | 14.6 µM (inactive) | 22.1 µM (inactive) | 22.4 µM (inactive) | 23.5 µM (inactive) | 21 µM (inactive) | 20.3 µM (inactive) | 17.7 µM (inactive) | 19.6 µM (inactive) | 19.7 µM (inactive) | 24.7 µM (inactive) | 13.8 µM (inactive) | 17.8 µM (inactive) | 17.9 µM (inactive) | 17.2 µM (inactive)
CCOc1ccc(NC(=O)/C(=C\c2ccc(C)cc2)C(C)=O)cc1 | > 100 µM (inactive) | > 100 µM (inactive) | > 100 µM (inactive) | > 100 µM (inactive) | > 100 µM (inactive) | > 100 µM (inactive) | < 0.01 µM (active) | > 100 µM (inactive) | > 100 µM (inactive) | > 100 µM (inactive) | > 100 µM (inactive) | > 100 µM (inactive) | > 100 µM (inactive) | > 100 µM (inactive) | > 100 µM (inactive) | > 100 µM (inactive) | > 100 µM (inactive) | > 100 µM (inactive)
CCOC(=O)CSc1cc[nH]c(=O)n1 | > 100 µM (inactive) | > 100 µM (inactive) | > 100 µM (inactive) | > 100 µM (inactive) | > 100 µM (inactive) | > 100 µM (inactive) | > 100 µM (inactive) | > 100 µM (inactive) | > 100 µM (inactive) | > 100 µM (inactive) | – | > 100 µM (inactive) | > 100 µM (inactive) | > 100 µM (inactive) | > 100 µM (inactive) | > 100 µM (inactive) | > 100 µM (inactive) | > 100 µM (inactive)

Reference: ChEMBL document CHEMBL1201862, “PubChem BioAssay data set” (2004)
